According to patent publication US12703729B2, “GIP agonist compounds and methods” (Zealand Pharma A/S, priority 2014, dated 2026):
Starred links: 1 amine or outer side, 2 acyl side, 3 side chain; linkers in the order of their positions; H or OH if unused. Non-standard residues stand in square brackets, D forms with d. Residues, ends and D or L forms follow the SMILES beside them. Groups on a side chain read outwards from the residue. *: point of attachment. C20 diacid = O=C(O)CCCCCCCCCCCCCCCCCCC(=O)*; γGlu = O=C(O)[C@H](CCC(=O)[*:2])N[*:1]; Palmitoyl = CCCCCCCCCCCCCCCC(=O)*; AEEA = NCCOCCOCC(=O)O; Aib = CC(C)(N)C(=O)O

Experiments:
human GIP R = target: T1, human GIP R (Homo sapiens, UniProt P48546); test: cell-based
T1 sequence (P48546 22-466): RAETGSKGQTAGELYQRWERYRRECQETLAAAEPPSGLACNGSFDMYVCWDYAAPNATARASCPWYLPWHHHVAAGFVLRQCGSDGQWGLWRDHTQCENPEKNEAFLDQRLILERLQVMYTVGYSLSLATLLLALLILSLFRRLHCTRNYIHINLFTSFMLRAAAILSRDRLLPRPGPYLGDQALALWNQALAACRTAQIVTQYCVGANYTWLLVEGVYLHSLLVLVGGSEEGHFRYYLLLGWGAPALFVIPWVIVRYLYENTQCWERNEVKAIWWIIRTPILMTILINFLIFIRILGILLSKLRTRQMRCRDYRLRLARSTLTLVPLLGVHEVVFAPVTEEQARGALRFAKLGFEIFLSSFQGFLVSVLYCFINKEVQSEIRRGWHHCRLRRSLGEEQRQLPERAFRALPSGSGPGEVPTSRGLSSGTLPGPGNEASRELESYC

[1] = target: T2, human GIP receptor (GIP R) (Homo sapiens, UniProt P48546); test: Activity assay at human GIP receptor, cAMP induction (AlphaScreen), Example 3
T2 sequence (P48546 22-466): T1 sequence (P48546 22-466)

Structure (SMILES)	EC50 (human GIP R) [nM]	EC50 [1] [nM]
CCCCCCCCCCCCCCCC(=O)N[C@@H](CCC(=O)NCCCC[C@H](NC(=O)[C@H](CCCCN)NC(=O)[C@H](CC(=O)O)NC(=O)[C@H](CC(C)C)NC(=O)[C@H](CCC(=O)O)NC(=O)[C@@H](NC(=O)[C@H](CO)NC(=O)[C@H](Cc1ccc(O)cc1)NC(=O)[C@H](CC(=O)O)NC(=O)[C@H](CO)NC(=O)[C@@H](NC(=O)[C@H](Cc1ccccc1)NC(=O)[C@@H](NC(=O)CNC(=O)[C@H](CCC(=O)O)NC(=O)C(C)(C)NC(=O)[C@@H](N)Cc1ccc(O)cc1)[C@@H](C)O)[C@@H](C)CC)[C@@H](C)CC)C(=O)N[C@@H](Cc1c[nH]cn1)C(=O)N[C@@H](CCC(N)=O)C(=O)N[C@@H](CCC(N)=O)C(=O)N[C@@H](CC(=O)O)C(=O)N[C@@H](Cc1ccccc1)C(=O)N[C@H](C(=O)N[C@@H](CC(N)=O)C(=O)N[C@@H](Cc1c[nH]c2ccccc12)C(=O)N[C@@H](CC(C)C)C(=O)N[C@@H](CC(C)C)C(=O)N[C@@H](C)C(=O)N[C@@H](CCC(N)=O)C(=O)NCC(=O)N1CCC[C@H]1C(=O)N[C@@H](CO)C(=O)N[C@@H](CO)C(=O)NCC(=O)N[C@@H](C)C(=O)N1CCC[C@H]1C(=O)N1CCC[C@H]1C(=O)N1CCC[C@H]1C(=O)N[C@@H](CO)C(N)=O)C(C)C)C(=O)O [Compound 1] (H-Y[Aib]EGTFISDYSIELDKK([γGlu-Palmitoyl])HQQDFVNWLLAQGPSSGAPPPS-NH2)	0.008	–
CCCCCCCCCCCCCCCC(=O)N[C@@H](CCC(=O)NCCCC[C@H](NC(=O)[C@H](CC(=O)O)NC(=O)[C@H](CC(C)C)NC(=O)[C@H](CCC(=O)O)NC(=O)[C@@H](NC(=O)[C@H](CO)NC(=O)[C@H](Cc1ccc(O)cc1)NC(=O)[C@H](CC(=O)O)NC(=O)[C@H](CO)NC(=O)[C@@H](NC(=O)[C@H](Cc1ccccc1)NC(=O)[C@@H](NC(=O)CNC(=O)[C@H](CCC(=O)O)NC(=O)C(C)(C)NC(=O)[C@@H](N)Cc1ccc(O)cc1)[C@@H](C)O)[C@@H](C)CC)[C@@H](C)CC)C(=O)N[C@H](C(=O)N[C@@H](Cc1c[nH]cn1)C(=O)N[C@@H](CCC(N)=O)C(=O)N[C@@H](CCC(N)=O)C(=O)N[C@@H](CC(=O)O)C(=O)N[C@@H](Cc1ccccc1)C(=O)N[C@H](C(=O)N[C@@H](CC(N)=O)C(=O)N[C@@H](Cc1c[nH]c2ccccc12)C(=O)N[C@@H](CC(C)C)C(=O)N[C@@H](CC(C)C)C(=O)N[C@@H](C)C(=O)N[C@@H](CCC(N)=O)C(=O)NCC(=O)N1CCC[C@H]1C(=O)N[C@@H](CO)C(=O)N[C@@H](CO)C(=O)NCC(=O)N[C@@H](C)C(=O)N1CCC[C@H]1C(=O)N1CCC[C@H]1C(=O)N1CCC[C@H]1C(=O)N[C@@H](CO)C(N)=O)C(C)C)[C@@H](C)CC)C(=O)O [Compound 2] (H-Y[Aib]EGTFISDYSIELDK([γGlu-Palmitoyl])IHQQDFVNWLLAQGPSSGAPPPS-NH2)	0.013	0.008
CCCCCCCCCCCCCCCC(=O)N[C@@H](CCC(=O)NCCCC[C@H](NC(=O)[C@H](CCCCN)NC(=O)[C@H](CCC(=O)O)NC(=O)[C@H](CC(C)C)NC(=O)[C@H](CCC(=O)O)NC(=O)[C@@H](NC(=O)[C@H](CO)NC(=O)[C@H](Cc1ccc(O)cc1)NC(=O)[C@H](CC(=O)O)NC(=O)[C@H](CO)NC(=O)[C@@H](NC(=O)[C@H](Cc1ccccc1)NC(=O)[C@@H](NC(=O)CNC(=O)[C@H](CCC(=O)O)NC(=O)C(C)(C)NC(=O)[C@@H](N)Cc1ccc(O)cc1)[C@@H](C)O)[C@@H](C)CC)[C@@H](C)CC)C(=O)N[C@@H](Cc1c[nH]cn1)C(=O)N[C@@H](CCC(N)=O)C(=O)N[C@@H](CCC(N)=O)C(=O)N[C@@H](CC(=O)O)C(=O)N[C@@H](Cc1ccccc1)C(=O)N[C@H](C(=O)N[C@@H](CC(N)=O)C(=O)N[C@@H](Cc1c[nH]c2ccccc12)C(=O)N[C@@H](CC(C)C)C(=O)N[C@@H](CC(C)C)C(=O)N[C@@H](C)C(=O)N[C@@H](CCC(N)=O)C(=O)NCC(=O)N1CCC[C@H]1C(=O)N[C@@H](CO)C(=O)N[C@@H](CO)C(=O)NCC(=O)N[C@@H](C)C(=O)N1CCC[C@H]1C(=O)N1CCC[C@H]1C(=O)N1CCC[C@H]1C(=O)N[C@@H](CO)C(N)=O)C(C)C)C(=O)O [Compound 3] (H-Y[Aib]EGTFISDYSIELEKK([γGlu-Palmitoyl])HQQDFVNWLLAQGPSSGAPPPS-NH2)	0.014	0.014
CC[C@H](C)[C@H](NC(=O)[C@H](CCCCN)NC(=O)[C@H](CC(=O)O)NC(=O)[C@H](CC(C)C)NC(=O)[C@H](CCC(=O)O)NC(=O)[C@@H](NC(=O)[C@H](CO)NC(=O)[C@H](Cc1ccc(O)cc1)NC(=O)[C@H](CC(=O)O)NC(=O)[C@H](CO)NC(=O)[C@@H](NC(=O)[C@H](Cc1ccccc1)NC(=O)[C@@H](NC(=O)CNC(=O)[C@H](CCC(=O)O)NC(=O)C(C)(C)NC(=O)[C@@H](N)Cc1ccc(O)cc1)[C@@H](C)O)[C@@H](C)CC)[C@@H](C)CC)C(=O)N[C@@H](Cc1c[nH]cn1)C(=O)N[C@@H](CCC(N)=O)C(=O)N[C@@H](CCC(N)=O)C(=O)N[C@@H](CC(=O)O)C(=O)N[C@@H](Cc1ccccc1)C(=O)N[C@H](C(=O)N[C@@H](CC(N)=O)C(=O)N[C@@H](Cc1c[nH]c2ccccc12)C(=O)N[C@@H](CC(C)C)C(=O)N[C@@H](CC(C)C)C(=O)N[C@@H](C)C(=O)N[C@@H](CCC(N)=O)C(=O)NCC(=O)N1CCC[C@H]1C(=O)N[C@@H](CO)C(=O)N[C@@H](CO)C(=O)NCC(=O)N[C@@H](C)C(=O)N1CCC[C@H]1C(=O)N1CCC[C@H]1C(=O)N1CCC[C@H]1C(=O)N[C@@H](CO)C(=O)N[C@@H](CCCCNC(=O)COCCOCCNC(=O)COCCOCCNC(=O)CC[C@H](NC(=O)CCCCCCCCCCCCCCCCCCC(=O)O)C(=O)O)C(N)=O)C(C)C [Compound 4] (H-Y[Aib]EGTFISDYSIELDKIHQQDFVNWLLAQGPSSGAPPPSK([AEEA-AEEA-γGlu-C20 diacid])-NH2)	0.013	0.014
CCCCCCCCCCCCCCCC(=O)N[C@@H](CCC(=O)NCCCC[C@H](NC(=O)[C@H](CO)NC(=O)[C@@H]1CCCN1C(=O)[C@@H]1CCCN1C(=O)[C@@H]1CCCN1C(=O)[C@H](C)NC(=O)CNC(=O)[C@H](CO)NC(=O)[C@H](CO)NC(=O)[C@@H]1CCCN1C(=O)CNC(=O)[C@H](CCC(N)=O)NC(=O)[C@H](C)NC(=O)[C@H](CC(C)C)NC(=O)[C@H](CC(C)C)NC(=O)[C@H](Cc1c[nH]c2ccccc12)NC(=O)[C@H](CC(N)=O)NC(=O)[C@@H](NC(=O)[C@H](Cc1ccccc1)NC(=O)[C@H](CC(=O)O)NC(=O)[C@H](CCC(N)=O)NC(=O)[C@H](CCC(N)=O)NC(=O)[C@H](Cc1c[nH]cn1)NC(=O)[C@@H](NC(=O)[C@H](CCCCN)NC(=O)[C@H](CC(=O)O)NC(=O)[C@H](CC(C)C)NC(=O)[C@H](CCC(=O)O)NC(=O)[C@@H](NC(=O)[C@H](CO)NC(=O)[C@H](Cc1ccc(O)cc1)NC(=O)[C@H](CC(=O)O)NC(=O)[C@H](CO)NC(=O)[C@@H](NC(=O)[C@H](Cc1ccccc1)NC(=O)[C@@H](NC(=O)CNC(=O)[C@H](CCC(=O)O)NC(=O)C(C)(C)NC(=O)[C@@H](N)Cc1ccc(O)cc1)[C@@H](C)O)[C@@H](C)CC)[C@@H](C)CC)[C@@H](C)CC)C(C)C)C(N)=O)C(=O)O [Compound 5] (H-Y[Aib]EGTFISDYSIELDKIHQQDFVNWLLAQGPSSGAPPPSK([γGlu-Palmitoyl])-NH2)	0.014	0.014
CCCCCCCCCCCCCCCC(=O)N[C@@H](CCC(=O)NCCCC[C@H](NC(=O)[C@H](CCC(N)=O)NC(=O)[C@H](C)NC(=O)[C@H](CC(C)C)NC(=O)[C@H](CC(C)C)NC(=O)[C@H](Cc1c[nH]c2ccccc12)NC(=O)[C@H](CC(N)=O)NC(=O)[C@@H](NC(=O)[C@H](Cc1ccccc1)NC(=O)[C@H](CC(=O)O)NC(=O)[C@H](CCC(N)=O)NC(=O)[C@H](CCC(N)=O)NC(=O)[C@H](Cc1c[nH]cn1)NC(=O)[C@@H](NC(=O)[C@H](CCCCN)NC(=O)[C@H](CC(=O)O)NC(=O)[C@H](CC(C)C)NC(=O)[C@H](CCC(=O)O)NC(=O)[C@@H](NC(=O)[C@H](CO)NC(=O)[C@H](Cc1ccc(O)cc1)NC(=O)[C@H](CC(=O)O)NC(=O)[C@H](CO)NC(=O)[C@@H](NC(=O)[C@H](Cc1ccccc1)NC(=O)[C@@H](NC(=O)CNC(=O)[C@H](CCC(=O)O)NC(=O)C(C)(C)NC(=O)[C@@H](N)Cc1ccc(O)cc1)[C@@H](C)O)[C@@H](C)CC)[C@@H](C)CC)[C@@H](C)CC)C(C)C)C(N)=O)C(=O)O [Compound 6] (H-Y[Aib]EGTFISDYSIELDKIHQQDFVNWLLAQK([γGlu-Palmitoyl])-NH2)	0.032	0.014
CCCCCCCCCCCCCCCC(=O)N[C@@H](CCC(=O)NCCCC[C@H](NC(=O)CNC(=O)[C@H](CCCCN)NC(=O)[C@H](CCC(N)=O)NC(=O)[C@H](C)NC(=O)[C@H](CC(C)C)NC(=O)[C@H](CC(C)C)NC(=O)[C@H](Cc1c[nH]c2ccccc12)NC(=O)[C@H](CC(N)=O)NC(=O)[C@@H](NC(=O)[C@H](Cc1ccccc1)NC(=O)[C@H](CC(=O)O)NC(=O)[C@H](CCC(N)=O)NC(=O)[C@H](CCC(N)=O)NC(=O)[C@H](Cc1c[nH]cn1)NC(=O)[C@@H](NC(=O)[C@H](CCCCN)NC(=O)[C@H](CC(=O)O)NC(=O)[C@H](CC(C)C)NC(=O)[C@H](CCC(=O)O)NC(=O)[C@@H](NC(=O)[C@H](CO)NC(=O)[C@H](Cc1ccc(O)cc1)NC(=O)[C@H](CC(=O)O)NC(=O)[C@H](CO)NC(=O)[C@@H](NC(=O)[C@H](Cc1ccccc1)NC(=O)[C@@H](NC(=O)CNC(=O)[C@H](CCC(=O)O)NC(=O)C(C)(C)NC(=O)[C@@H](N)Cc1ccc(O)cc1)[C@@H](C)O)[C@@H](C)CC)[C@@H](C)CC)[C@@H](C)CC)C(C)C)C(N)=O)C(=O)O [Compound 7] (H-Y[Aib]EGTFISDYSIELDKIHQQDFVNWLLAQKGK([γGlu-Palmitoyl])-NH2)	–	0.032
